Data published in ChEMBL document CHEMBL2073949, “Dehydroepiandrosterone sulfate (DHEAS): identification of a carrier protein in human liver and brain” (FEBS Lett, 1998).

Tests used:
Type in all cases: functional, cell-based, Oocyte
[1] = target: T1, Solute carrier organic anion transporter family member 1A2 (OATP1A2) (Homo sapiens, UniProt P46721); assay: TP_TRANSPORTER: inhibition of DHEAS uptake (DHEAS: 5 uM, Dexamethasone: 100 uM) in Xenopus laevis oocytes; conditions: Xenopus laevis oocytes expressing OATP1A2 (SLCO1A2), probe DHEAS (5 uM)
T1 sequence (P46721 whole entry): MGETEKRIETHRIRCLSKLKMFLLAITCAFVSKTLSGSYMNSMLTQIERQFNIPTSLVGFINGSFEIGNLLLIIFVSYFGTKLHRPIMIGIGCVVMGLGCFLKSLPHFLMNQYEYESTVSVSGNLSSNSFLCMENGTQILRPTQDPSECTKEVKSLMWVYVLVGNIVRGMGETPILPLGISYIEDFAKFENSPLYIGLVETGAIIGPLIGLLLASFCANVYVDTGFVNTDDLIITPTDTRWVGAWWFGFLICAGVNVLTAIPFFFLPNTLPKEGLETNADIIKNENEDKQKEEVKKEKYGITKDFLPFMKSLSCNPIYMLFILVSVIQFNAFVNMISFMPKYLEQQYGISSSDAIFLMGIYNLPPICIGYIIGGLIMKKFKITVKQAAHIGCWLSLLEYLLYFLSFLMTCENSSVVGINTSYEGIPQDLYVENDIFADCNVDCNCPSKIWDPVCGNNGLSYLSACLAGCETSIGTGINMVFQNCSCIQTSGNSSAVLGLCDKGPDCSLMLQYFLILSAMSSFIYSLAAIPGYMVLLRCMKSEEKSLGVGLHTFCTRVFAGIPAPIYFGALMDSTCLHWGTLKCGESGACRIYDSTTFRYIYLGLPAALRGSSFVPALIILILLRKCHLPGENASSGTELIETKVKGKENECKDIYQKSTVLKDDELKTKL

[2] = target: T1, Solute carrier organic anion transporter family member 1A2 (OATP1A2); assay: TP_TRANSPORTER: inhibition of DHEAS uptake (DHEAS: 5 uM, TUDC: 100 uM) in Xenopus laevis oocytes; conditions: Xenopus laevis oocytes expressing OATP1A2 (SLCO1A2), probe DHEAS (5 uM)
[3] = target: T1, Solute carrier organic anion transporter family member 1A2 (OATP1A2); assay: TP_TRANSPORTER: inhibition of DHEAS uptake (DHEAS: 5 uM, TCDC: 100 uM) in Xenopus laevis oocytes; conditions: Xenopus laevis oocytes expressing OATP1A2 (SLCO1A2), probe DHEAS (5 uM)
[4] = target: T1, Solute carrier organic anion transporter family member 1A2 (OATP1A2); assay: TP_TRANSPORTER: inhibition of DHEAS uptake (DHEAS: 5 uM, E1S: 100 uM) in Xenopus laevis oocytes; conditions: Xenopus laevis oocytes expressing OATP1A2 (SLCO1A2), probe DHEAS (5 uM)
[5] = target: T1, Solute carrier organic anion transporter family member 1A2 (OATP1A2); assay: TP_TRANSPORTER: uptake in Xenopus laevis oocytes; conditions: Xenopus laevis oocytes expressing OATP1A2 (SLCO1A2)
[6] = target: T1, Solute carrier organic anion transporter family member 1A2 (OATP1A2); assay: TP_TRANSPORTER: inhibition of DHEAS uptake (DHEAS: 5 uM, Estradiol-3-sulfate: 100 uM) in Xenopus laevis oocytes; conditions: Xenopus laevis oocytes expressing OATP1A2 (SLCO1A2), probe DHEAS (5 uM)

## C[C@@H]1C[C@H]2[C@@H]3CCC4=CC(=O)C=C[C@]4(C)[C@@]3(F)[C@@H](O)C[C@]2(C)[C@@]1(O)C(=O)CO [DEXAMETHASONE]
[1]
  inhibition at 100 µM: 97.3%

## C[C@H](CCC(=O)NCCS(=O)(=O)O)[C@H]1CC[C@H]2[C@@H]3[C@@H](O)C[C@@H]4C[C@H](O)CC[C@]4(C)[C@H]3CC[C@]12C [TAURURSODIOL]
[2]
  inhibition at 100 µM: 85.7%

## C[C@H](CCC(=O)NCCS(=O)(=O)O)[C@H]1CC[C@H]2[C@@H]3[C@H](O)C[C@@H]4C[C@H](O)CC[C@]4(C)[C@H]3CC[C@]12C [TAUROCHENODEOXYCHOLATE]
[3]
  inhibition at 100 µM: 75.2%

## C[C@]12CC[C@@H]3c4ccc(OS(=O)(=O)O)cc4CC[C@H]3[C@@H]1CCC2=O [ESTRONE SULFURIC ACID]
[4]
  inhibition at 100 µM: 82.3%

## C[C@]12CC[C@H](OS(=O)(=O)O)CC1=CC[C@@H]1[C@@H]2CC[C@]2(C)C(=O)CC[C@@H]12 [PRASTERONE SULFURIC ACID]
[5]
  Km: 6.6 µM

## C[C@]12CC[C@@H]3c4ccc(OS(=O)(=O)O)cc4CC[C@H]3[C@@H]1CC[C@@H]2O
[6]
  inhibition at 100 µM: 92.9%
